The values that follow come from patent publication US6723720B2, “Pesticidal triazine-derivatives” (Novartis Animal Health US, Inc., priority 1999, dated 2004).

Structures are written as SMILES.

Take `Fc1cccc(F)c1-c1cnnc(-c2ccc(-c3ccc(OC(F)(F)F)cc3)cc2)n1` [Example 1.6, 5-(2,6-Difluorophenyl)-3-(4′-trifluoromethoxybiphenyl-4-yl)-[1,2,4]triazine]: the melting point (in general, the temperature, or range, at which the solid turns liquid) lay within 159 to 160 °C.
